Measurements from patent US20130225427A1, “METHOD FOR PREDICTION OF RESPONSE TO IMMUNE MEDIATED DISEASE THERAPEUTICS” (SANFORD-BURNHAM MEDICAL RESEARCH INSTITUTE, priority 2010, published 2013).

Assays:
Format in all cases: in vivo, human
APC = assay: Taqman gene expression in APC from PBMC of treated RA clinical responders; conditions: compared to initiation of the treatment
Description: (§1) The aim of this study is to identify clusters of immune pathways characteristic of responsiveness that are specific to treatment. […] We show as summary a color coded table. We clustered individual immune functions according to cut off values identified in preliminary studies (25% change compared with baseline at active disease). The Table 1 depicts the differences for patients who are all responders and therefore otherwise clinically indistinguishable ([…]).
(§2) PBMCs from each patient were incubated for 48 hours with plate bound anti-CD3/CD28. Non-adherent cells were collected to enrich T cells by pan T-cell MACS. T cells were FACS sorted on CD4+CD127+ (TE) and CD4+CD25+CD127− (nTreg), and CD4+CD25+PD1+CD127− (PD1+ Treg). Aliquots of all sorted cells were collected for TaqMan. The remainder of the APCs and TE were cultured with isolated Treg. CFSE was added to the TE cells and cultured for a total of 4 days with anti-CD3/CD28.

nTreg = assay: Taqman gene expression in sorted CD4+CD25+CD127− nTreg of treated RA clinical responders; conditions: compared to initiation of the treatment
Description: as §1, §2

PD1 + Treg = assay: Taqman gene expression in sorted CD4+CD25+PD1+CD127− PD1+ Treg of treated RA clinical responders; conditions: compared to initiation of the treatment
Procedure: The aim of this study is to identify clusters of immune pathways characteristic of responsiveness that are specific to treatment. […] We clustered individual immune functions according to cut off values identified in preliminary studies (25% change compared with baseline at active disease).
as §2

Treg = assay: Suppression activity of Treg on CFSE-labelled TE proliferation; conditions: when clinical response is seen (FIG. 3)
Procedure: as §2

Te Cells = assay: Taqman gene expression in sorted CD4+CD127+ effector T cells (TE) of treated RA clinical responders; conditions: compared to initiation of the treatment
Description: as §1, §2

Compound: CN(Cc1cnc2nc(N)nc(N)c2n1)c1ccc(C(=O)N[C@@H](CCC(=O)O)C(=O)O)cc1 [MTX, methotrexate]
- B7-H1 up or down regulated (APC): up regulated (cut off values identified in preliminary studies (25% change compared with baseline at active disease))
- B7-H2 up or down regulated (APC): up regulated (cut off values identified in preliminary studies (25% change compared with baseline at active disease))
- B7-H4 up or down regulated (APC): up regulated (cut off values identified in preliminary studies (25% change compared with baseline at active disease))
- FAS-L up or down regulated (APC): up regulated (cut off values identified in preliminary studies (25% change compared with baseline at active disease))
- IL-10 up or down regulated (APC): up regulated (cut off values identified in preliminary studies (25% change compared with baseline at active disease))
- INFγ up or down regulated (APC): up regulated (cut off values identified in preliminary studies (25% change compared with baseline at active disease))
- TGFβ up or down regulated (APC): up regulated (cut off values identified in preliminary studies (25% change compared with baseline at active disease))
- percent change in expression of B7-H1 (APC): +106.4%
- percent change in expression of B7-H2 (APC): +98.4%
- percent change in expression of B7-H4 (APC): +118.6%
- percent change in expression of FAS-L (APC): +83.1%
- percent change in expression of IL-10 (APC): +28.6%
- percent change in expression of INFγ (APC): +219.9%
- percent change in expression of TGFβ (APC): +31.1%
- CTLA4 up or down regulated (nTreg): up regulated (cut off values identified in preliminary studies (25% change compared with baseline at active disease))
- FoxP3 up or down regulated (nTreg): up regulated (cut off values identified in preliminary studies (25% change compared with baseline at active disease))
- Granzyme B up or down regulated (nTreg): up regulated (cut off values identified in preliminary studies (25% change compared with baseline at active disease))
- INFγ up or down regulated (nTreg): up regulated (cut off values identified in preliminary studies (25% change compared with baseline at active disease))
- PD1 up or down regulated (nTreg): up regulated (cut off values identified in preliminary studies (25% change compared with baseline at active disease))
- TGFβ up or down regulated (nTreg): up regulated (cut off values identified in preliminary studies (25% change compared with baseline at active disease))
- percent change in expression of CTLA4 (nTreg): +684.0%
- percent change in expression of FoxP3 (nTreg): 439.0%
- percent change in expression of Granzyme B (nTreg): +393.7%
- percent change in expression of INFγ (nTreg): +99.6%
- percent change in expression of PD1 (nTreg): +474.2%
- percent change in expression of TGFβ (nTreg): +69.3%
- CTLA4 up or down regulated (PD1 + Treg): up regulated (cut off values identified in preliminary studies (25% change compared with baseline at active disease))
- FoxP3 up or down regulated (PD1 + Treg): up regulated (cut off values identified in preliminary studies (25% change compared with baseline at active disease))
- Granzyme B up or down regulated (PD1 + Treg): up regulated (cut off values identified in preliminary studies (25% change compared with baseline at active disease))
- IL-10 up or down regulated (PD1 + Treg): up regulated (cut off values identified in preliminary studies (25% change compared with baseline at active disease))
- INFγ up or down regulated (PD1 + Treg): up regulated (cut off values identified in preliminary studies (25% change compared with baseline at active disease))
- PD1 up or down regulated (PD1 + Treg): up regulated (cut off values identified in preliminary studies (25% change compared with baseline at active disease))
- Perforin up or down regulated (PD1 + Treg): up regulated (cut off values identified in preliminary studies (25% change compared with baseline at active disease))
- TGFβ up or down regulated (PD1 + Treg): up regulated (cut off values identified in preliminary studies (25% change compared with baseline at active disease))
- percent change in expression of FoxP3 (PD1 + Treg): +124.1%
- percent change in expression of Granzyme B (PD1 + Treg): +213.8%
- percent change in expression of IL-10 (PD1 + Treg): 168.8%
- percent change in expression of INFγ (PD1 + Treg): +355.0%
- percent change in expression of PD1 (PD1 + Treg): 290.3%
- percent change in expression of Perforin (PD1 + Treg): +288.7%
- percent change in expression of TGFβ (PD1 + Treg): +254.4%
- suppressive capability of Treg to suppress effector proliferation (Treg): enhanced
- IL-10 up or down regulated (Te Cells): no change (cut off values identified in preliminary studies (25% change compared with baseline at active disease))
- IL-17A up or down regulated (Te Cells): no change (cut off values identified in preliminary studies (25% change compared with baseline at active disease))
- TGFβ up or down regulated (Te Cells): up regulated (cut off values identified in preliminary studies (25% change compared with baseline at active disease))
- percent change in expression of FAS-L (Te Cells): 20.5%
- percent change in expression of GATA-3 (Te Cells): −21.6%
- percent change in expression of ICOS (Te Cells): −7.2%
- percent change in expression of IL-10 (Te Cells): +15.2%
- percent change in expression of IL-17A (Te Cells): +0.3%
- percent change in expression of INFγ (Te Cells): +1.7%
- percent change in expression of PD-1 (Te Cells): +5.6%
- percent change in expression of TGFβ (Te Cells): +150.8%
- percent change in expression of TNFα (Te Cells): 2.3%
- percent change in expression of Tbet (Te Cells): −17.1%
